Experimental data: ChEMBL document CHEMBL1134177, “Non-peptidic, non-prenylic inhibitors of the prenyl protein-specific protease Rce1” (Bioorg Med Chem Lett, 2001)

How the values were obtained:
[1] = molecular target: T1, CAAX prenyl protease 2 (Homo sapiens) (UniProt Q9Y256); test: Inhibition of recombinant prenyl protein-specific protease Rce1 in Sf9 cells at a concentration of 10 uM
T1 sequence (whole entry): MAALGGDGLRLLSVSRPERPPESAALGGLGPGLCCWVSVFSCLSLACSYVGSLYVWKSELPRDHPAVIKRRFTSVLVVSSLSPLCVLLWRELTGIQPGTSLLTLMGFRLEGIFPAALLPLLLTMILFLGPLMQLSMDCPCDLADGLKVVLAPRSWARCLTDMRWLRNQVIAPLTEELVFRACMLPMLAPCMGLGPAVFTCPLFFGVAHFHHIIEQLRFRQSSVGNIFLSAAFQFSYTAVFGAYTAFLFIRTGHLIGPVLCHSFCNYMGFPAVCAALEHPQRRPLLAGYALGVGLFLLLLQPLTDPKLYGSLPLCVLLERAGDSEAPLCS

[2] = molecular target: T2, CAAX prenyl protease 2 (Homo sapiens, UniProt Q9Y256); test: Inhibition of recombinant prenyl protein-specific protease Rcel expressed in Sf9 cells
T2 sequence (Q9Y256 whole entry): T1 sequence (whole entry)

[3] = molecular target: Protein farnesyltransferase (Homo sapiens, UniProt P49354+P49356); test: Inhibitory activity against Farnesyltransferase; format: protein-complex assay
[4] = molecular target: T2, CAAX prenyl protease 2; test: Inhibition of recombinant prenyl protein-specific protease Rce1 expressed in Sf9 cells […]

Structure (SMILES)	inhibition [1]	also measured
CCCCCCCCCCCCCCCC(=O)NCCC(=O)Nc1cccc(S(=O)(=O)NCCc2c[nH]c3ccccc23)c1	23%	–
CCCCCCCCCCCCCCCC(=O)N(C)CCC(=O)Nc1cccc(S(=O)(=O)Nc2cccc(C)c2C)c1	22%	–
CCCCCCCCCCCCCCCC(=O)NCCC(=O)Nc1cccc(S(=O)(=O)NCc2cccc3ccccc23)c1	20%	–
CCCCC/C=C\C/C=C\CCCCCCCC(=O)NCCC(=O)Nc1cccc(S(=O)(=O)Nc2cccc(C)c2C)c1	–	IC50 [2]: 14 µM; IC50 [3]: 3.8 µM
CCCCCCCCCCCCCCCC(=O)NCCC(=O)Nc1cccc(C(=O)Nc2cccc(C)c2C)c1	11%	–
CCCCCCCCCCCCCCCCC(=O)NCC(=O)Nc1cccc(S(=O)(=O)Nc2cccc(C)c2C)c1	–	IC50 [3]: 3.5 µM; IC50 [4]: 7 µM
CCCCCCCCCCCCCCCCCC(=O)NCCC(=O)Nc1cccc(S(=O)(=O)Nc2cccc(C)c2C)c1	< 5%	IC50 [3]: 2.5 µM
CCCCCCCCCCCCCCCC(=O)NCCC(=O)Nc1ccc(C(=O)N[C@@H](CCSC)C(=O)OC)cc1	15%	–
CCCCCCCC/C=C\CCCCCCCC(=O)NCCC(=O)Nc1cccc(S(=O)(=O)Nc2cccc(C)c2C)c1	< 5%	–
CCCCCCCCCCCCCC(=O)NCCC(=O)Nc1cccc(S(=O)(=O)Nc2cccc(C)c2C)c1	< 5%	–
Cc1cccc(NS(=O)(=O)c2cccc(NC(=O)CCNC(=O)/C=C/c3ccc(-c4ccccc4)cc3)c2)c1C	–	IC50 [3]: 3.4 µM; IC50 [4]: 7 µM
CCCCCCCCCCCCCCCC(=O)NCCC(=O)Nc1cccc(S(=O)(=O)Nc2cccc(C)c2C)c1	18%	–

Continued, in another order:

inhibition [1]	Structure (SMILES)	also measured
22%	CCCCCCCCCCCCCCCC(=O)NCC(=O)Nc1ccc(C(=O)N[C@@H](CCSC)C(=O)OC)cc1	–
< 5%	CCCCCCCCCCCCCCCC(=O)NCCC(=O)Nc1cccc(S(=O)(=O)Nc2cccc3ccccc23)c1	–
21%	CCCCCCCCCCCCCCC(=O)NCCCC(=O)Nc1cccc(S(=O)(=O)Nc2cccc(C)c2C)c1	–
28%	CCCCCCCCCCCCCCCC(=O)NCCC(=O)Nc1ccc(S(=O)(=O)N[C@@H](CCSC)C(=O)OC)cc1	–
